The experiment has as its target T1, T. brucei TS (Tsf-TbDHFR-TS) (Trypanosoma brucei brucei, UniProt Q27783).
T1 construct: The open reading frame of DHFR-TS was amplified by PCR from T. brucei gDNA using specific oligonucleotides; made in house; host or cells: thyA- E. coli derived from BL21 Star (DE3); unpurified clarified lysate
The experiment in a line: Kinetic analysis of TS activity (substrates). The format is biochemical. The following applies: clarified E. coli lysate, radiometric assay; read-out: CH2THF Km^app. The method, then:
The initial characterisation of TS was also carried out using a spectrophotometric assay. Owing to the pronounced instability of the recombinant protein, clarified ThyA^- E. coli lysates were used for characterisation, where the concentration of TS was calculated based on DHFR activity. […] . Enzymatic reactions were initiated by the addition of CH2THF (200 μM, Shircks Laboratories) and initial rates of CH2THF oxidation to DHF monitored by the increase in absorbance at 340 nm (ε = 6,200 M^-1 cm^-1). This method is not suitable for determination of the Km^app for CH2THF and a radiometric method was used instead. This method measures the release of tritiated water from 5-[^3H]-dUMP (American Radiochemicals, 14.3 Ci mmol^-1). Assays (40 μl final volume) contained 200 nM TS and varying amounts of CH2THF (37.5 μM– 4.8 mM) in DHFR-assay buffer. Reactions were initiated by adding 200 μM [^3H]-dUMP (5.55 × 10^5 dpm nmol^-1) and stopped after 10 min by the addition of 20 μl trichloroacetic acid. Residual 5-[^3H]-dUMP was removed by the addition of 200 μl of 10% (w/v) activated charcoal (Sigma). Aliquots (100 μl) of the supernatants were added to 2 ml of scintillation fluid (Pico-Fluor 40™, Packard Bioscience) and radioactivity determined using a Beckmann LS 6500 Scintillation Counter. […] Protein concentrations were determined using the BioRad protein assay based on the method of Bradford. […]

Molecules are shown by their SMILES.

T1 sequence (Q27783 whole entry): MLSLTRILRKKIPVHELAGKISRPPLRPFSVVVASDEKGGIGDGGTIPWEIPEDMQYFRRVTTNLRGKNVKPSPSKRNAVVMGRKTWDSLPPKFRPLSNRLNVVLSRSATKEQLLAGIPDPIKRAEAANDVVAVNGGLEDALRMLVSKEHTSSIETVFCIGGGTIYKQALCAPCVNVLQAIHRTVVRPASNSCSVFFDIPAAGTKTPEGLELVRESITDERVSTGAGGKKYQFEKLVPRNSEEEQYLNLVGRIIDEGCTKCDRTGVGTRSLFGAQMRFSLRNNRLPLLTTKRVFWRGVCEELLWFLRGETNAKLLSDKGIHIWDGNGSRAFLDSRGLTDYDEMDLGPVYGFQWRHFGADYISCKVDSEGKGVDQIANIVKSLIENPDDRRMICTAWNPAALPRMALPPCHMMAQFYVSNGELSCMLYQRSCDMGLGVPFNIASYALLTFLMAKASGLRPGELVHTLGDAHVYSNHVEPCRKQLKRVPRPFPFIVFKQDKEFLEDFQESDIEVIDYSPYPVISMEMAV
T1 sequence (P0A6P1 whole entry partner): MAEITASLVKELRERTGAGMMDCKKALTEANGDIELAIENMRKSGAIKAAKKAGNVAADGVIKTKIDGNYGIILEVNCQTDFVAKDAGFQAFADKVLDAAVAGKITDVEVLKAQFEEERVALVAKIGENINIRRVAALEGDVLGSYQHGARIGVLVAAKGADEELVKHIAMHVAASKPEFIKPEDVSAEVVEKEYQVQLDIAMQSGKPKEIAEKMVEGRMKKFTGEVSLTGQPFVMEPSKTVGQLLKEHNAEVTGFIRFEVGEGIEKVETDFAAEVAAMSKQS

Regarding `Nc1nc2c(c(=O)[nH]1)N1CN(c3ccc(C(=O)N[C@@H](CCC(=O)O)C(=O)O)cc3)CC1CN2` (stereo partly shown) [CH2THF, N^5, N^10-methylenetetrahydrofolate], the Km was found to be 470 ± 50 µM.

In general, Km refers to the substrate concentration at which the rate is half of its maximum.

These data come from PMC4866688, “Trypanosoma brucei DHFR-TS Revisited: Characterisation of a Bifunctional and Highly Unstable Recombinant Dihydrofolate Reductase-Thymidylate Synthase” (PLoS Neglected Tropical Diseases, 2016).
